Test results published in patent publication US20250179000A1 (Sanford Burnham Prebys Medical Discovery Institute, priority 2021, published 2025).

Key:
Assay type in all cases: cell-based
[1] = biological target: Human mGlu3 (Homo sapiens, UniProt Q14832); assay: mGlu receptor in vitro assay, human mGlu3
[2] = biological target: T1, Rat mGlu2 (Rattus norvegicus, UniProt P31421); assay: mGlu receptor in vitro assay, thallium flux through GIRK channels, rat mGlu2; conditions: PAM potency with EC20 glutamate
T1 construct: expressed in transfected cells; host or cells: HEK-293 co-expressing GIRK channels
T1 sequence (P31421 19-872): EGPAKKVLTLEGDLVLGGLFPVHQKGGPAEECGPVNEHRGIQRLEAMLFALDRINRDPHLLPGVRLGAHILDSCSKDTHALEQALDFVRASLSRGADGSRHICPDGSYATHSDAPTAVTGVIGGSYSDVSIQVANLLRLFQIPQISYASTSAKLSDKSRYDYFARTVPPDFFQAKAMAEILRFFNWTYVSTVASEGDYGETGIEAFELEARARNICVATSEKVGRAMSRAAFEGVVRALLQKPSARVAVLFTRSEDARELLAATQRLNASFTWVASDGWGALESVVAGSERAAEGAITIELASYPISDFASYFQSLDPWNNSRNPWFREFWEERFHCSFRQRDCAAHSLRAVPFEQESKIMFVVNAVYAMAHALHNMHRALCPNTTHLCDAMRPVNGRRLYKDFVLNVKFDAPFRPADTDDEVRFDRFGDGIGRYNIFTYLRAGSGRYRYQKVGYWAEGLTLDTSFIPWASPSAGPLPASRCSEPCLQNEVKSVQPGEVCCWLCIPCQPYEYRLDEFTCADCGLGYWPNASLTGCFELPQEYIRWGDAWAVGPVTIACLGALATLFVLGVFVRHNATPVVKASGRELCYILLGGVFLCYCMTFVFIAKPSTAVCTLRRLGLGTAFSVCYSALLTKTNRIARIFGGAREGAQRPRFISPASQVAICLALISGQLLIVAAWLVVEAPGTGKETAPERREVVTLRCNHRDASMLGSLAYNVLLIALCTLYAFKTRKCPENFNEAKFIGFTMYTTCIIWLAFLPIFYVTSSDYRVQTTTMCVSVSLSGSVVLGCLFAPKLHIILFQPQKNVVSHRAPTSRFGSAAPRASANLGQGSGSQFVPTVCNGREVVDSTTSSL
Method in brief: (§1)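 HEK-293 cells co-expressing rat mGlu2 or mGlu3 and GIRK, dye-loaded with FluoZin2-AM, compound added about 2.5 min before thallium buffer with EC20 glutamate; potency from the 5-15 s fluorescence slope, 10-point 4-parameter fit. Calcium assay at mGlu3 used TREx293 mGlu3 Gα15 cells induced with tetracycline 20 ng/mL for 20 h.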

[3] = biological target: Human mGlu2 (Homo sapiens, UniProt Q14416); assay: mGlu receptor in vitro assay, human mGlu2
Chain of Human mGlu2 (Q14416 19-872): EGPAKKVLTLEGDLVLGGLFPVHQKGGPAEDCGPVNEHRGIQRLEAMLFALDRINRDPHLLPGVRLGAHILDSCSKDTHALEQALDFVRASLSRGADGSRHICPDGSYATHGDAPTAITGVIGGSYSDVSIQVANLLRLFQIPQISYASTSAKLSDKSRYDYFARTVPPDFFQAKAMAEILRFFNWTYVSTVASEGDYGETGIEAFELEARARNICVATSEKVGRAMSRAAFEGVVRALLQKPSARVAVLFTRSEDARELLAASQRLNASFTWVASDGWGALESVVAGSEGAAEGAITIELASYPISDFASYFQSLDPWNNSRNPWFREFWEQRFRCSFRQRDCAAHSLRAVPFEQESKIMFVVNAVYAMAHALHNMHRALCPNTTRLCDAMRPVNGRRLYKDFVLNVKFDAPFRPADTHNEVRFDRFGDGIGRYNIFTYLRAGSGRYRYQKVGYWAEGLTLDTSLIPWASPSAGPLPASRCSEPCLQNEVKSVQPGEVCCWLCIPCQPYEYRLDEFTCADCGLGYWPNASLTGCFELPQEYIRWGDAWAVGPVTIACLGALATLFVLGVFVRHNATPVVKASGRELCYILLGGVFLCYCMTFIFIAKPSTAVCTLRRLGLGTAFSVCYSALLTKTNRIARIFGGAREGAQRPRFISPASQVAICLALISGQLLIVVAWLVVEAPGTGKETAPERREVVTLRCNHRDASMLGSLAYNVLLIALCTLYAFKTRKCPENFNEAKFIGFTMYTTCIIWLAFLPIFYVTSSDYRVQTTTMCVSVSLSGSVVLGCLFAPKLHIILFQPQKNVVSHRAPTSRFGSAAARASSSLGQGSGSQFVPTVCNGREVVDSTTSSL

[4] = biological target: T2, Rat mGlu3 (Rattus norvegicus, UniProt P31422); assay: mGlu receptor in vitro assay (thallium flux through GIRK channels / calcium assay), rat mGlu3; conditions: PAM potency with EC20 glutamate
T2 construct: expressed in transfected cells; host or cells: HEK-293 co-expressing GIRK channels
T2 sequence (P31422 23-879): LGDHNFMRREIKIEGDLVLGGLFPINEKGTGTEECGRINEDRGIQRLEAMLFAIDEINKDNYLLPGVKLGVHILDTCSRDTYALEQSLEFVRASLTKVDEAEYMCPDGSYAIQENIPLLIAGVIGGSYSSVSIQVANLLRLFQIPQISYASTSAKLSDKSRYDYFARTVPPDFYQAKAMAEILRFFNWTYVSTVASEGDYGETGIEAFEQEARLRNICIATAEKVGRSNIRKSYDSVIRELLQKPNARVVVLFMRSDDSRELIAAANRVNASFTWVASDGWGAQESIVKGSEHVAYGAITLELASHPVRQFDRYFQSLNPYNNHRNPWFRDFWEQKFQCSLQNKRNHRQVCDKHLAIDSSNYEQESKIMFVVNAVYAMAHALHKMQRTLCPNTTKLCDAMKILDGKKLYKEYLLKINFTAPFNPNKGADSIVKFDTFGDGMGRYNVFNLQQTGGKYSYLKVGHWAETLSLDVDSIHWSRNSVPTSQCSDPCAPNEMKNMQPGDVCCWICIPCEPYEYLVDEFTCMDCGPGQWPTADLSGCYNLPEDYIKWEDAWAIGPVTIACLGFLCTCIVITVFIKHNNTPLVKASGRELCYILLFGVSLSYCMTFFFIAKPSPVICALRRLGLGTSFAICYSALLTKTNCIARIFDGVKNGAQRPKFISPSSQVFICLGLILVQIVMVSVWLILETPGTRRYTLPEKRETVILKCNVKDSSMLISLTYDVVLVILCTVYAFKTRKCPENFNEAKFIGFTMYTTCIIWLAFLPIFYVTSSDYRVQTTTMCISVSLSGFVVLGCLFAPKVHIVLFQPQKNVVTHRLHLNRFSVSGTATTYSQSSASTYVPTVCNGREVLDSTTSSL
Method in brief: as §1

Chain of Human mGlu3 (Q14832 23-879): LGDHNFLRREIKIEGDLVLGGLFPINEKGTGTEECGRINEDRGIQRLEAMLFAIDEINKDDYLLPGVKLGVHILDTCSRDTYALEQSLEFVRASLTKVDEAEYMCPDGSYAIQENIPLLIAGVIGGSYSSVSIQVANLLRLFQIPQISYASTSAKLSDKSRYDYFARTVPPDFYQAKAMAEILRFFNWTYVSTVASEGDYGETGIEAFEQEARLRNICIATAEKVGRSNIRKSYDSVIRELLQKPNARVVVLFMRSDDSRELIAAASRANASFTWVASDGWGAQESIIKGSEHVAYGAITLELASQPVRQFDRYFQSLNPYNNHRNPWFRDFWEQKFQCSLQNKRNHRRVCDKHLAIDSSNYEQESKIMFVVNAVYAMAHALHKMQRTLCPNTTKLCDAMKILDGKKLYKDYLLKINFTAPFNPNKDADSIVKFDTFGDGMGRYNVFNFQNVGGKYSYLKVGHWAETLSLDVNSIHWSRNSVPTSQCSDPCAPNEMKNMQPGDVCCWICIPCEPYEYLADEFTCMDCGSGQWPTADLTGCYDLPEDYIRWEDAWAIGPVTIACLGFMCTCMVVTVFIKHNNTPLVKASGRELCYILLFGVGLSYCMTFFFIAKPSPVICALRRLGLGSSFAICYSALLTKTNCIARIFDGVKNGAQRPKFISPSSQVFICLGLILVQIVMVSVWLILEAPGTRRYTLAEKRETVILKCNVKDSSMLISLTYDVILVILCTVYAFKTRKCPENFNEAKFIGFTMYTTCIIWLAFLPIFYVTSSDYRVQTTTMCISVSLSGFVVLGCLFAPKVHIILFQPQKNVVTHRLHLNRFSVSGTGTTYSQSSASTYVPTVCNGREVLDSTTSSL

Structure (SMILES) | EC50 [1] [nM] | EC50 [2] [nM] | EC50 [3] [nM] | EC50 [4] [nM]
CCCC(=O)c1ccc(OC/C=C/COc2ccc(C(=O)O)c(Cl)c2)c(C)c1O [Example 44, 4-[(2E)-4-(4-Butanoyl-3-hydroxy-2-methylphenoxy)but-2-enyloxy]-2-chlorobenzoic acid] | 1130 | 44 | 20 | 1030
CCCC(=O)c1ccc(OCCCCCOc2ccc(C(=O)O)c(F)c2)c(C)c1O [Example 45, 4-[5-(4-Butanoyl-3-hydroxy-2-methylphenoxy)pentyloxy]-2-fluorobenzoic acid] | 943 | 66 | 13 | 1090
Cc1c(OCCCCCOc2ccc(C(=O)O)c(Cl)c2)ccc(C(=O)CC(C)C)c1O [Example 46, 2-Chloro-4-{5-[3-hydroxy-2-methyl-4-(3-methylbutanoyl)phenoxy]pentyloxy}benzoic acid] | 414 | 39 | 12 | 427
CCCC(=O)c1ccc(OCCCCCOc2ccc(C(=O)O)cc2Cl)c(C)c1O [Example 50, 4-[5-(4-Butanoyl-3-hydroxy-2-methylphenoxy)pentyloxy]-3-chlorobenzoic acid] | > 10000 | 43 | 21 | > 10000
[2H]C([2H])(CCCC([2H])([2H])Oc1ccc(C(=O)CCC)c(O)c1C)Oc1ccc(C(=O)O)cc1OC [Example 51, 4-((5-(4-Butyryl-3-hydroxy-2-methylphenoxy)pentyl-1,1,5,5-d4)oxy)-3-methoxybenzoic acid] | > 30000 | 22 | 9 | 2380
COc1ccc(C(=O)O)cc1OCCCCOc1ccc(C(=O)c2ccccc2)c(O)c1C [compound 59, 3-(4-(4-Benzoyl-3-hydroxy-2-methylphenoxy)butoxy)-4-methoxybenzoic acid] | 408 | 182 | 325 | 222
COc1ccc(C(=O)O)cc1OCCCCOc1ccc(C(=O)C2CC2)c(O)c1C [compound 60, 3-(4-(4-(Cyclopropanecarbonyl)-3-hydroxy-2-methylphenoxy)butoxy)-4-methoxybenzoic acid] | 598 | 117 | 60 | > 10000
COc1ccc(C(=O)O)cc1OCCCCOc1ccc(C(=O)c2ccc(F)cc2)c(O)c1C [compound 65, 3-(4-(4-(4-Fluorobenzoyl)-3-hydroxy-2-methylphenoxy)butoxy)-4-methoxybenzoic acid] | 342 | 1150 | 143 | 3030
COc1ccc(C(=O)O)cc1OCCCCSc1ccc(C(=O)CC(C)(C)C)c(O)c1C [compound 84, 3-{4-[4-(3,3-Dimethylbutanoyl)-3-hydroxy-2-methylphenylthio]butoxy}-4-methoxybenzoic acid] | 340 | 382 | 126 | 953
Cc1c(OCCCCOc2ccc(C(=O)O)c(F)c2)ccc(C(=O)CC(C)C)c1O [compound 100, 2-Fluoro-4-{4-[3-hydroxy-2-methyl-4-(3-methylbutanoyl)phenoxy]butoxy}benzoic acid] | 773 | 79 | 15 | 732
CCCC(=O)c1ccc(OCCCCOc2ccc(C(=O)O)c(Cl)c2)c(C)c1O [compound 101, 4-[4-(4-Butanoyl-3-hydroxy-2-methylphenoxy)butoxy]-2-chlorobenzoic acid] | > 30000 | 33 | 16 | > 30000
COc1ccc(C(=O)O)cc1OCCCCOc1ccc(C(=O)CC(C)(C)C)c(O)c1 [compound 132, 3-(4-(4-(3,3-Dimethylbutanoyl)-3-hydroxyphenoxy)butoxy)-4-methoxybenzoic acid] | 114 | 403 | 129 | 309

Other lines, results leading:

EC50 [1] [nM] | EC50 [2] [nM] | EC50 [3] [nM] | EC50 [4] [nM] | Structure (SMILES)
> 30000 | 36 | 25 | > 30000 | CCCC(=O)c1ccc(OCCCCCOc2ccc(Cl)c(C(=O)O)c2)c(C)c1O [Example 52, 5-[5-(4-Butanoyl-3-hydroxy-2-methylphenoxy)pentyloxy]-2-chlorobenzoic acid]
708 | 19 | 6 | 920 | [2H]C([2H])(CCCC([2H])([2H])Oc1ccc(C(=O)CCC)c(O)c1C)Oc1ccc(C(=O)O)c(Cl)c1 [Example 53, 4-((5-(4-Butyryl-3-hydroxy-2-methylphenoxy)pentyl-1,1,5,5-d4)oxy)-2-chlorobenzoic acid]
300 | 8 | 6 | 577 | CCCC(=O)c1ccc(OCCCCCOc2ccc(C(=O)O)c(Cl)c2)c(C)c1O [Example 54, 4-[5-(4-Butanoyl-3-hydroxy-2-methylphenoxy)pentyloxy]-2-chlorobenzoic acid]
242 | 110 | 39 | 559 | COc1cc(F)c(C(=O)O)cc1-c1cccc(COc2ccc(C(=O)CC(C)(C)C)c(O)c2C)c1 [Example 164, 3′-((4-(3,3-dimethylbutanoyl)-3-hydroxy-2-methylphenoxy)methyl)-4-fluoro-6-methoxy-[1,1′-biphenyl]-3-carboxylic acid]
23 | 49 | 33 | 28 | COc1ccc(C(=O)O)cc1-c1cncc(COc2ccc(C(=O)C3CC3)c(O)c2C)n1 [compound 69, 3-(6-((4-(Cyclopropanecarbonyl)-3-hydroxy-2-methylphenoxy)methyl)pyrazin-2-yl)-4-methoxybenzoic acid]
966 | 326 | 163 | 1490 | Cc1c(OCCCCSc2cccc(C(=O)O)c2)ccc(C(=O)CC(C)C)c1O [compound 81, 3-((4-(3-Hydroxy-2-methyl-4-(3-methylbutanoyl)phenoxy)butyl)thio)benzoic acid]
> 10000 | 441 | 100 | > 30000 | Cc1c(OCOc2ccc(C(=O)CC(C)(C)C)c(O)c2C)cccc1C(=O)O [compound 94, 3-{[4-(3,3-Dimethylbutanoyl)-3-hydroxy-2-methylphenoxy]methoxy}-2-methylbenzoic acid]
159 | 93 | 54 | 493 | COc1c(C(=O)O)cccc1-c1cccc(COc2ccc(C(=O)CC(C)(C)C)c(O)c2C)c1 [compound 102, 3-(3-{[4-(3,3-Dimethylbutanoyl)-3-hydroxy-2-methylphenoxy]methyl}phenyl)-2-methoxybenzoic acid]
375 | 198 | 54 | 481 | CCCC(=O)c1ccc(OCc2cnc(-c3cccc(C(=O)O)c3OC)cn2)c(C)c1O [compound 103, 3-{5-[(4-Butanoyl-3-hydroxy-2-methylphenoxy)methyl]pyrazin-2-yl}-2-methoxybenzoic acid]
222 | 303 | 190 | 69 | COc1c(C(=O)O)cccc1-c1ccc(COc2ccc(C(=O)CC(C)(C)C)c(O)c2C)cc1 [compound 104, 3-(4-{[4-(3,3-Dimethylbutanoyl)-3-hydroxy-2-methylphenoxy]methyl}phenyl)-2-methoxybenzoic acid]
156 | 356 | 355 | 43 | Cc1c(OCc2cnc(-c3ccc(F)c(C(=O)O)c3)cn2)ccc(C(=O)CC(C)(C)C)c1O [compound 115, 5-(5-((4-(3,3-Dimethylbutanoyl)-3-hydroxy-2-methylphenoxy)methyl)pyrazin-2-yl)-2-fluorobenzoic acid]
213 | 117 | 234 | 28 | COc1ccc(C(=O)O)cc1-c1cnc(COc2ccc(C(=O)CC(C)(C)C)c(O)c2C)cn1 [compound 116, 3-(5-((4-(3,3-Dimethylbutanoyl)-3-hydroxy-2-methylphenoxy)methyl)pyrazin-2-yl)-4-methoxybenzoic acid]
140 | 373 | 189 | 134 | COc1ccc(C(=O)NC2CC2)cc1-c1cnc(COc2ccc(C(=O)CC(C)(C)C)c(O)c2C)cn1 [compound 127, N-Cyclopropyl-3-(5-((4-(3,3-dimethylbutanoyl)-3-hydroxy-2-methylphenoxy)methyl)pyrazin-2-yl)-4-methoxybenzamide]
148 | 430 | 297 | 104 | COc1ccc(-c2cnc(COc3ccc(C(=O)CC(C)(C)C)c(O)c3C)cn2)cc1C(=O)O [compound 128, 5-(5-((4-(3,3-Dimethylbutanoyl)-3-hydroxy-2-methylphenoxy)methyl)pyrazin-2-yl)-2-methoxybenzoic acid]
31 | 254 | 76 | 53 | COc1cc(F)c(C(=O)O)cc1-c1cnc(COc2ccc(C(=O)CC(C)(C)C)c(O)c2C)cn1 [compound 130, 5-(5-((4-(3,3-Dimethylbutanoyl)-3-hydroxy-2-methylphenoxy)methyl)pyrazin-2-yl)-2-fluoro-4-methoxybenzoic acid]
79 | 268 | 74 | 247 | Cc1c(OCc2nc(-c3cccc(C(=O)O)c3)no2)ccc(C(=O)CC(C)(C)C)c1O [compound 133, 3-(5-((4-(3,3-Dimethylbutanoyl)-3-hydroxy-2-methylphenoxy)methyl)-1,2,4-oxadiazol-3-yl)benzoic acid]
